Test results from patent US10392368B2, “Pyrazolo and triazolo bicyclic compounds as JAK kinase inhibitors” (THERAVANCE BIOPHARMA R&D IP, LLC, priority 2017, dated 2019).
Read-outs that look alike come from different tables or passages of the source.

Legend:
JAK2 = target: T1, JAK2 (Homo sapiens, UniProt O60674); test: Biochemical JAK2 kinase assay (LanthaScreen); conditions: for Ki: read-out: JAK 2 (pKi) (converted)
T1 construct: GST; purchased Life Technologies
In short: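 GST-tagged recombinant JAK2 pre-incubated 1 h at ambient temperature with compound and GFP-STAT1 peptide in HEPES pH 7.5/MgCl2 buffer, then ATP added for a 1 h reaction with 1% DMSO. TR-FRET read after EDTA and Tb-anti-pSTAT1 (pTyr701) addition; IC50 from 4-parameter fit, converted to pKi by Cheng-Prusoff.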

[1] = test system: IL-2 stimulated pSTAT5 in Tall-1 T cells; test: Cellular JAK3 potency assay: inhibition of IL-2 stimulated pSTAT5 in Tall-1 T cells; type: cell-based, human; conditions: for IC50: Homo sapiens, read-out: Tall-1 (pIC50) (converted)
In short: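 Tall-1 human T cells (45,000/well) in phenol red-free DMEM with 10% FBS were preincubated with compound 1 h at 37 °C, then stimulated with IL-2 (final 300 ng/ml) for 30 min. Lysate pSTAT5 read by AlphaLisa; IC50 from inhibition curves, reported as pIC50 (mean±SD).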

JAK3 = target: T2, JAK3 (Homo sapiens, UniProt P52333); test: Biochemical JAK3 kinase assay (LanthaScreen); design: GST; purchased Life Technologies; conditions: for Ki: read-out: JAK 3 (pKi) (converted)
T2 sequence (P52333 1-1124): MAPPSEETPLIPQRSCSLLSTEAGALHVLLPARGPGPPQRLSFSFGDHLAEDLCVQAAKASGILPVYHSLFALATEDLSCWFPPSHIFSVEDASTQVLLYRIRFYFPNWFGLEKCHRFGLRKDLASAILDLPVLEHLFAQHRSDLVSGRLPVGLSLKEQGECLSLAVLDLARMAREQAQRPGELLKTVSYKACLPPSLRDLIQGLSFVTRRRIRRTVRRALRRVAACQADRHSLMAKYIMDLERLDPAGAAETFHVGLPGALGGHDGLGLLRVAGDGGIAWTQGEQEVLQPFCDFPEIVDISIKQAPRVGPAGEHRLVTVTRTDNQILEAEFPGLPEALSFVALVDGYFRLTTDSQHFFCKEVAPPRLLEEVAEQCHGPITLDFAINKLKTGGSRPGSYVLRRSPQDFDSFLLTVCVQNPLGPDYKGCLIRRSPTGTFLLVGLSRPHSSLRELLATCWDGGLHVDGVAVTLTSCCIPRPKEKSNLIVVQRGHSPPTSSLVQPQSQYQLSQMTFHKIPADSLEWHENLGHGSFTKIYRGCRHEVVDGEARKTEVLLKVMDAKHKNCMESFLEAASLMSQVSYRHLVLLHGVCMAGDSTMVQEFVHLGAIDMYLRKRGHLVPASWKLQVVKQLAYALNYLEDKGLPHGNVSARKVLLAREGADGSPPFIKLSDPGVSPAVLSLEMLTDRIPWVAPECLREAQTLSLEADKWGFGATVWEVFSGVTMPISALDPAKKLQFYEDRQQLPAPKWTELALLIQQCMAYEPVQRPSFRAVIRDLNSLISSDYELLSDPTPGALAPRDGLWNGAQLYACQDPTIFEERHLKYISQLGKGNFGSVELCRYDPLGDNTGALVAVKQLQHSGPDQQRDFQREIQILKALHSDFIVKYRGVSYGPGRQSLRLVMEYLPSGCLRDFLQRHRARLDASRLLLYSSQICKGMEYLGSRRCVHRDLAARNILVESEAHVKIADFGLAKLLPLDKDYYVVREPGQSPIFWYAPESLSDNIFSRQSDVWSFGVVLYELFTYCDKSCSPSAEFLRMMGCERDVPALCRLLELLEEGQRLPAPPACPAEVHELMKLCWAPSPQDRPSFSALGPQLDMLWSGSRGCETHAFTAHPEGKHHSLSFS
In short: (§1)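 Compounds were preincubated with the GST-tagged kinase and GFP-labelled STAT1 peptide for one hour before ATP initiated a one-hour reaction at ambient temperature. Phosphorylation was quantified by TR-FRET with a Tb-labelled pTyr701 antibody. Ki values were derived from IC50 using Cheng-Prusoff.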

JAK1 = target: T3, JAK1 (Homo sapiens, UniProt P23458); test: Biochemical JAK1 kinase assay (LanthaScreen); conditions: for Ki: read-out: JAK 1 (pKi) (converted)
T3 construct: GST; purchased Life Technologies
T3 sequence (P23458 whole entry): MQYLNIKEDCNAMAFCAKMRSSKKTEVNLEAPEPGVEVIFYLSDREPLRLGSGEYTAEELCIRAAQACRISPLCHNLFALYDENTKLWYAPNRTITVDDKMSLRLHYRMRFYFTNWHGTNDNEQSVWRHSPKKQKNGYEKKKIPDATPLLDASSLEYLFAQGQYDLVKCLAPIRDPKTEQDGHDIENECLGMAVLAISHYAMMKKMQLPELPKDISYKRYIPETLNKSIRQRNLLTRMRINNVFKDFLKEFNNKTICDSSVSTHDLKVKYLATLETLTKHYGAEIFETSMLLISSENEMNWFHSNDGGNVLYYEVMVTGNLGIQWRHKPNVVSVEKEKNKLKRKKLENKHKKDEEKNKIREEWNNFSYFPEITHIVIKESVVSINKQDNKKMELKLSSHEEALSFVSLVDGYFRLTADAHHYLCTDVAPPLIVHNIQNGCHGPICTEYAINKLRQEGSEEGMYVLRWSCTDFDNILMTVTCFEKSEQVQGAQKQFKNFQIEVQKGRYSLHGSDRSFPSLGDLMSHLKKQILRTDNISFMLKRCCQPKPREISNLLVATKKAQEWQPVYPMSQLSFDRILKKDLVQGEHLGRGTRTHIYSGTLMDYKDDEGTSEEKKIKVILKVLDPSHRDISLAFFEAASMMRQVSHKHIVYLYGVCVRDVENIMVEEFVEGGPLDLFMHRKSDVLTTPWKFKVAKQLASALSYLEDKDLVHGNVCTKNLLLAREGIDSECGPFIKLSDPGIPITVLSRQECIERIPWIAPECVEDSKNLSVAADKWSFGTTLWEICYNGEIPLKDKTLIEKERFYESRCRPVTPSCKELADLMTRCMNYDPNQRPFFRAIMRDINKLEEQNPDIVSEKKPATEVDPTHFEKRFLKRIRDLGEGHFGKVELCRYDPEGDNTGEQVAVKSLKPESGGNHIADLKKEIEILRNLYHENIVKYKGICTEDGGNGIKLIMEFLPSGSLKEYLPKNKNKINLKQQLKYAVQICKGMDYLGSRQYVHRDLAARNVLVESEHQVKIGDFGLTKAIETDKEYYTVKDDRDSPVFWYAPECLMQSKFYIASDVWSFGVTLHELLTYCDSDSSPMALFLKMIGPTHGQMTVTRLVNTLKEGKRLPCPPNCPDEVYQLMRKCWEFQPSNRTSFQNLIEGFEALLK
In short: as §1

Tyk2 = target: T4, Tyk2 (Homo sapiens, UniProt P29597); test: Biochemical Tyk2 kinase assay (LanthaScreen); conditions: for Ki: read-out: Tyk 2 (pKi) (converted)
T4 construct: GST; purchased Life Technologies
T4 sequence (P29597 whole entry): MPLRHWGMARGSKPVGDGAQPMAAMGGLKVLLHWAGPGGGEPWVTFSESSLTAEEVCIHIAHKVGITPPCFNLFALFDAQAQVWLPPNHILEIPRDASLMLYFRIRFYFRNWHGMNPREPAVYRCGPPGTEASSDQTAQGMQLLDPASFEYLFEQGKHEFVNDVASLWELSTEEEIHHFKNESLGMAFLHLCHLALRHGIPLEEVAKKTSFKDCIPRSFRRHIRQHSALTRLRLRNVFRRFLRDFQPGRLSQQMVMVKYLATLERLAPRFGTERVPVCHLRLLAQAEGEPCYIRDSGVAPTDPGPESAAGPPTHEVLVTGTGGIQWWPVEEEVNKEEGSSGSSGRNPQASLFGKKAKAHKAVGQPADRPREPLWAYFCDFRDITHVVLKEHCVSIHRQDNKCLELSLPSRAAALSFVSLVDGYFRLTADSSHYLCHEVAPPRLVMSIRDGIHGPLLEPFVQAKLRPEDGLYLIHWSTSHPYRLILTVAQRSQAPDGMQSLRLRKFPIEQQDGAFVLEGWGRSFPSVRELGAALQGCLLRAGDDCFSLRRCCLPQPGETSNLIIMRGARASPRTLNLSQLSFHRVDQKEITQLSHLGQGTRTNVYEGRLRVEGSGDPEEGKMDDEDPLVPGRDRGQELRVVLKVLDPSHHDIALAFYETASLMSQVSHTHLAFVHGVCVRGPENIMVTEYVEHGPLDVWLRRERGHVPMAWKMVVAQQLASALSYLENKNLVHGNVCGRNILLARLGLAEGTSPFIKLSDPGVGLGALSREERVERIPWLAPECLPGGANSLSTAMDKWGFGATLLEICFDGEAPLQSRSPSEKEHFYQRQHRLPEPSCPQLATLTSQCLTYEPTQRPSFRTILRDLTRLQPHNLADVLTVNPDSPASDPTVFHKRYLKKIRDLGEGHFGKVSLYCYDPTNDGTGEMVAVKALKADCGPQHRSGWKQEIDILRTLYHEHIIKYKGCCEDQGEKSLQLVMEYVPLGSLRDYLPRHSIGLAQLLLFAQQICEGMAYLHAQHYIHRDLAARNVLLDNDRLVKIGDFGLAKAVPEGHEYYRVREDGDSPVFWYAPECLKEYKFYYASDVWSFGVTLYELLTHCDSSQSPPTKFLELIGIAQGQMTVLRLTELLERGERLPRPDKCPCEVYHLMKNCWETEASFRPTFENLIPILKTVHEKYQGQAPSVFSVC
Method: A panel of four LanthaScreen JAK biochemical assays (JAK1, 2, 3 and Tyk2) were carried in a common kinase reaction buffer (50 mM HEPES, pH 7.5, 0.01% Brij-35, 10 mM MgCl2, and 1 mM EGTA). Recombinant GST-tagged JAK enzymes and a GFP-tagged STAT1 peptide substrate were obtained from Life Technologies.
Serially or discretely diluted compounds were pre-incubated with each of the four JAK enzymes and the substrate in white 384-well microplates (Corning) at ambient temperature for 1 h. ATP was subsequently added to initiate the kinase reactions in 10 μL total volume, with 1% DMSO. […] Kinase reactions were allowed to proceed for 1 hour at ambient temperature before a 10 μL preparation of EDTA (10 mM final concentration) and Tb-anti-pSTAT1 (pTyr701) antibody (Life Technologies, 2 nM final concentration) in TR-FRET dilution buffer (Life Technologies) was added. The plates were allowed to incubate at ambient temperature for 1 h before being read on the EnVision reader (Perkin Elmer). Emission ratio signals (520 nm/495 nm) were recorded and utilized to calculate the percent inhibition values based on DMSO and background controls.
For dose-response analysis, percent inhibition data were plotted vs. compound concentrations, and IC50 values were determined from a 4-parameter robust fit model with the Prism software (GraphPad Software). Results were expressed as pIC50 (negative logarithm of IC50) and subsequently converted to pKi (negative logarithm of dissociation constant, Ki) using the Cheng-Prusoff equation.

[2] = IL-2 stimulated pSTAT5, Tall-1 T cells
[3] = selectivity JAK3 over JAK1, difference of pKi
[4] = TALL-1, IL-2 stimulated pSTAT5 in Tall-1 T cells
[5] = selectivity: difference of pKi JAK3 and pKi JAK1
[6] = TALL-1, IL-2 stimulated pSTAT5, Tall-1 T cells
[7] = IL-2 stimulated pSTAT5 in Tall-1 T cells

T1 sequence (O60674 whole entry): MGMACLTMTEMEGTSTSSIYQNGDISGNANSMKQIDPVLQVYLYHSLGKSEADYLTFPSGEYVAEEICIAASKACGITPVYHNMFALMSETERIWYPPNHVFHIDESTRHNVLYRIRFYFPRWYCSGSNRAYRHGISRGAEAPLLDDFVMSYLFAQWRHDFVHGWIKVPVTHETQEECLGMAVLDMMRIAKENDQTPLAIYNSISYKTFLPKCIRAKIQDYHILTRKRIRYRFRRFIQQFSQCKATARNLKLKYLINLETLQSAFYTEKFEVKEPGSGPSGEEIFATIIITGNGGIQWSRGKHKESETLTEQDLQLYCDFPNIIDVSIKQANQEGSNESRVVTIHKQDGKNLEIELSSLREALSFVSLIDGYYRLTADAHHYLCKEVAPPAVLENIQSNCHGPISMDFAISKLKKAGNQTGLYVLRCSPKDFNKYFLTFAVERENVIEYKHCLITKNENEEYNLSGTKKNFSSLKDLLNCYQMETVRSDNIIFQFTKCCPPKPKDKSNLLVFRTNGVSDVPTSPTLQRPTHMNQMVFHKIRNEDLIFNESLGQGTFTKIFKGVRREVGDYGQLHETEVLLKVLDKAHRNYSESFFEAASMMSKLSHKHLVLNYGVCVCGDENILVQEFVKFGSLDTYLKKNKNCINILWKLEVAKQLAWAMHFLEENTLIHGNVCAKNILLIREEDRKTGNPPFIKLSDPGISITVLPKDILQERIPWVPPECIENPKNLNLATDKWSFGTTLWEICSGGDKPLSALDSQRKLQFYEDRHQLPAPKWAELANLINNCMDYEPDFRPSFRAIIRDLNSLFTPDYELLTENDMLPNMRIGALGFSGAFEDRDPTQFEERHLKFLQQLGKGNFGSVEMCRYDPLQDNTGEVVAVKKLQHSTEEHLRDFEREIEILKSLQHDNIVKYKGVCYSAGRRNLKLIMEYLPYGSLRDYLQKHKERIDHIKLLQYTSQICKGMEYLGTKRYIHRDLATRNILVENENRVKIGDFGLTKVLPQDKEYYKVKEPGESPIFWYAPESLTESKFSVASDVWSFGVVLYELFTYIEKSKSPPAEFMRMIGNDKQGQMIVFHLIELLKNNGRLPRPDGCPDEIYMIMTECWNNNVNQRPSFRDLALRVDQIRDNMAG

Row | SMILES | JAK 2 (pKi) (JAK2) | Tall-1 (pIC50) [1, 2] | JAK 3 (pKi) (JAK3) | JAK3 (pKi)-JAK1 (pKi) (JAK3; [3]) | JAK 1 (pKi) (JAK1) | Tyk 2 (pKi) (Tyk2) | Ki (JAK2) [nM] | IC50 [1, 4] [nM] | Ki (JAK3) [nM] | JAK3 (pKi)-JAK1 (pKi) (JAK3; [5]) | Ki (JAK1) [nM] | Ki (Tyk2) [nM] | IC50 [1, 6] [nM] | Tall-1 (pIC50) [1, 7] | IC50 [1, 7] [nM]
1 | C=CC(=O)N1CCC(C)(Nc2cc(-c3ccc(O)cc3)cc3[nH]ncc23)CC1 [Compound 7-2] | D (a pKi value between 7 and 8 (Ki between 100 nM and 10 nM)) | A (a pIC50 value≥7.5 (IC50≤32 nM)) | B (a pKi value between 9 and 10 (Ki between 1 nM and 0.1 nM)) | A (a value of 3 or above) | E (a pKi value of 7 or below (Ki of 100 nM or above)) | E (a pKi value of 7 or below (Ki of 100 nM or above)) |  |  |  |  |  |  |  |  | 
2 | C=CC(=O)N1C2CCC1CC(Oc1cc(-c3ccc(O)cc3)cc3[nH]ncc13)C2 (stereo not drawn) [Compound 10-2] | C (a pKi value between 8 and 9 (Ki between 10 nM and 1 nM)) | A (a pIC50 value≥7.5 (IC50≤32 nM)) | A (a pKi value≥10 (Ki≤0.1 nM)) | B (a value of 2.3 to 3) | D (a pKi value between 7 and 8 (Ki between 100 nM and 10 nM)) | D (a pKi value between 7 and 8 (Ki between 100 nM and 10 nM)) |  |  |  |  |  |  |  |  | 
3 | C=CC(=O)N1CC[C@H](Oc2cc(-c3ccc(O)c(F)c3)cc3[nH]nc(SC)c23)C1 [Compound 1-40] |  |  |  |  |  |  | > 100 | 31.6 to 200 | 0.1 to 1 | B (a value of 2.3 to 3) | > 100 | > 100 |  |  | 
4 | CN(C)C/C=C/C(=O)N1CC(C)(COc2cc(-c3ccc(O)cc3)cc3[nH]ncc23)C1 [Compound 3-7] |  |  |  |  |  |  | 10 to 100 | 31.6 to 200 | < 0.1 | A (a value of 3 or above) | > 100 | > 100 |  |  | 
5 | C=CC(=O)N1CCC(C)(Nc2cc(-c3ccc(O)c(Cl)c3)cc3[nH]ncc23)CC1 [Compound 7-11] | D (a pKi value between 7 and 8 (Ki between 100 nM and 10 nM)) | A (a pIC50 value≥7.5 (IC50≤32 nM)) | A (a pKi value≥10 (Ki≤0.1 nM)) | A (a value of 3 or above) | E (a pKi value of 7 or below (Ki of 100 nM or above)) | E (a pKi value of 7 or below (Ki of 100 nM or above)) |  |  |  |  |  |  |  |  | 
6 | CN1CCC[C@@H]1/C=C/C(=O)N1CC(COc2cc(-c3ccc(O)cc3)cc3[nH]ncc23)C1 [Compound 3-85] |  |  |  |  |  |  | 10 to 100 | < 31.6 | < 0.1 | A (a value of 3 or above) | > 100 | > 100 |  |  | 
7 | C=CC(=O)N1C[C@@H](Oc2cc(-c3ccc(O)cc3)cc3[nH]ncc23)C[C@H]1C [Compound 1-11] |  |  |  |  |  |  | > 100 | < 31.6 | < 0.1 | A (a value of 3 or above) | > 100 | > 100 |  |  | 
8 | C=CC(=O)N1CC(OCc2cc(-c3ccc(O)cc3)cc3[nH]ncc23)C1 [Compound 12-39] |  |  |  | A (a value of 3 or above) |  |  | > 100 |  | 0.1 to 1 |  | > 100 | > 100 | < 31.6 |  | 
9 | C=CC(=O)N1CC[C@H](COc2cc(-c3ccc(O)c(F)c3)cc3[nH]ncc23)C1 [Compound 2-5] | D (a pKi value between 7 and 8 (Ki between 100 nM and 10 nM)) |  | B (a pKi value between 9 and 10 (Ki between 1 nM and 0.1 nM)) |  | E (a pKi value of 7 or below (Ki of 100 nM or above)) | E (a pKi value of 7 or below (Ki of 100 nM or above)) |  |  |  | A (a value of 3 or above) |  |  |  | B (a pIC50 value between 6.7 (included) and 7.5 (IC50 between 200 nM and 32 nM)) | 
10 | CN(C)C/C=C/C(=O)N1CC(F)(C(=O)Nc2cc(-c3ccc(O)cc3)cc3[nH]ncc23)C1 [Compound 12-67] |  |  |  | A (a value of 3 or above) |  |  | > 100 |  | 0.1 to 1 |  | > 100 | > 100 | 31.6 to 200 |  | 
11 | C=CC(=O)N1CCC(Nc2cc(-c3ccc(O)cc3)cc3[nH]ncc23)CC1 [Compound 7-4] |  |  |  | B (a value of 2.3 to 3) |  |  | 1 to 10 |  | 0.1 to 1 |  | 10 to 100 | > 100 | < 31.6 |  | 
12 | C=CC(=O)N1CC(C#N)(COc2cc(-c3ccc(O)c(Cl)c3)cc3[nH]ncc23)C1 [Compound 3-22] |  |  |  |  |  |  | > 100 |  | < 0.1 | A (a value of 3 or above) | > 100 | > 100 |  |  | 31.6 to 200
13 | CN(C)C/C=C/C(=O)N1CC(CN(C)c2cc(-c3ccc(O)c(Cl)c3)cc3[nH]ncc23)C1 [Compound 4-4] | E (a pKi value of 7 or below (Ki of 100 nM or above)) |  | A (a pKi value≥10 (Ki≤0.1 nM)) |  | E (a pKi value of 7 or below (Ki of 100 nM or above)) | E (a pKi value of 7 or below (Ki of 100 nM or above)) |  |  |  | A (a value of 3 or above) |  |  |  | B (a pIC50 value between 6.7 (included) and 7.5 (IC50 between 200 nM and 32 nM)) | 
